Experimental data reported in patent publication US8951993B2, “Phosphorus containing compounds as protein kinase inhibitors” (Jiangsu Hansoh Pharmaceutical Co., Ltd., priority 2011, dated 2015).

What was measured:
ALK [1] = target: T1, ALK (Homo sapiens, UniProt Q9UM73); assay: ALK enzyme activity assay (HTRF KinEASE); type: biochemical; design: purchased Millipore Company (Billerica, Mass., USA); settings: ATP 25 μM, 30° C. 30 minutes
Experimental: ALK Enzyme Activity Assay:
ALK kinase was purchased from Millipore Company (Billerica, Mass., USA). HTRF®KinEASET™ was purchased from Cisbio Company (Bedford, Mass., USA). The assay was conducted according to the procedure provided in the assay kit. In brief, incubation was carried out in the kinase buffer containing ALK (0.3 ng/μL), ATP (25 μM), TK substrate-biotin (10 μM), DTT (1 mM), MgCl2 (5 mM), MnCl2 (5 mM) in the presence of the tested articles at various concentrations in 384-well plate at 30° C. for 30 minutes. The reaction was stopped by addition of Sa-XL665 in EDTA solution, and the phosphorylated substrate was detected with a proprietary phospho-specific monoclonal antibody labeled with Eu^3+-Cryptate and a proprietary biotinylated kinase substrate detected using XL665 labeled streptavidin. IC50 value was calculated using median-effect method (Chou 2006).
Target sequence in this assay (Q9UM73 19-1620): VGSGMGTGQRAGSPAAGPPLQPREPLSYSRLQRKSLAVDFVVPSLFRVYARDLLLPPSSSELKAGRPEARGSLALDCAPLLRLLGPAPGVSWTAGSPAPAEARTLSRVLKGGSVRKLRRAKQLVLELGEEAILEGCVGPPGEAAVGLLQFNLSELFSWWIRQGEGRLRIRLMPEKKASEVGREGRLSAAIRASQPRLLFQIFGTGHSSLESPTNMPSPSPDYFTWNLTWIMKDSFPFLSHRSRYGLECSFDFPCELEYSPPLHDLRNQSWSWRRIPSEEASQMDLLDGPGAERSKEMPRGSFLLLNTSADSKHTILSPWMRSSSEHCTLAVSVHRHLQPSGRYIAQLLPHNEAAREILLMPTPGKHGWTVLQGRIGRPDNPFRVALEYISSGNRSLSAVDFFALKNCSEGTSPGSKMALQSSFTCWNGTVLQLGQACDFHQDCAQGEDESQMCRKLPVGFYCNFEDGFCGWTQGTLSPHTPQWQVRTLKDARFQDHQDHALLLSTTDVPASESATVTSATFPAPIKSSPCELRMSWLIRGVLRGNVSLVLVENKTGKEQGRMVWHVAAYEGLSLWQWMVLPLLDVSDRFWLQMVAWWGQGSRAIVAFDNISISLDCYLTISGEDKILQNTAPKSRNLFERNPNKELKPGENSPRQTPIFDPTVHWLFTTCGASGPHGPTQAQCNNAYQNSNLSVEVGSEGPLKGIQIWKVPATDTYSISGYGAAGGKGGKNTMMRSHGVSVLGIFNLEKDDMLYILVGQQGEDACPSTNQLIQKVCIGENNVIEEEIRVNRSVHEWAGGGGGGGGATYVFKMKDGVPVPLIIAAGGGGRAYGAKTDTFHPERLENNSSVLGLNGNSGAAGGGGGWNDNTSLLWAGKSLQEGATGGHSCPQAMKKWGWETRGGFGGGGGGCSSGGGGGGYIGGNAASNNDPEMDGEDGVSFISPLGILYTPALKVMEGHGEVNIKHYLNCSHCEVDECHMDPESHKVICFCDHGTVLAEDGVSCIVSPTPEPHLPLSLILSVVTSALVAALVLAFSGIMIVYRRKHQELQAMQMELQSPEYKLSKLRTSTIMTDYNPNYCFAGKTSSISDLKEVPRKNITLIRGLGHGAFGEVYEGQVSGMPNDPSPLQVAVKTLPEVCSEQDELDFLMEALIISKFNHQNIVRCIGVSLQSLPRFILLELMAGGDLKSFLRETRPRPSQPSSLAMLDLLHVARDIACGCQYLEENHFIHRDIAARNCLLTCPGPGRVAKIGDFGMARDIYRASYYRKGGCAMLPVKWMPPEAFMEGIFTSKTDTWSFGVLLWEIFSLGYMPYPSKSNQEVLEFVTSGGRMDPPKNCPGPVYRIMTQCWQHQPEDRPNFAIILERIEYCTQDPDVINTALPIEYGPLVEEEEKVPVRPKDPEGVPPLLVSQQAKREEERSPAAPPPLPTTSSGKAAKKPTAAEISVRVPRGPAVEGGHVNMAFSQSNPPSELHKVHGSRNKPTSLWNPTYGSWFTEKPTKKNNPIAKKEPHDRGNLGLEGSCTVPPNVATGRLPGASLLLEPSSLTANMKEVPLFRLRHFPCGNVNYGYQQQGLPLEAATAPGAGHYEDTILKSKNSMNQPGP

SU-DHL-1 = assay: Cell proliferation assay (MTS / BrdU), SU-DHL-1; type: cell-based; settings: Homo sapiens, 72 hours, 2% FBS
Experimental: (§1) Karpas299 and SU-DHL-1 cells were purchased from Deutsche Sammlung von Mikroorganismen and Zellkulturen (Germany). H2228 was purchased from American Type Culture Collection (USA). All cells were cultured in the recommended medium and serum concentration. Cells were maintained at 37° C. in a humidified atmosphere with 5% CO2. For ALK kinase phosphorylation, cells were seeded in 96-well plates overnight in medium supplemented with 10% fetal bovine serum […]. After 24 hours, the medium was removed and cells were cultured in serum-free medium at 37° C. in the presence of various concentrations of the test articles for 1 hour. After incubation with the tested articles, cells were washed once with HBSS supplemented with 1 mM Na3VO4 and protein lysates were generated. Subsequently, phosphorylation of ALK was assessed by a sandwich ELISA method using an immobilized anti-total-ALK antibody and an anti-phospho-ALK antibody (pY1604) as a detection antibody. IC50 value was calculated using median-effect method. (Chou 2006).
(§2) For cell proliferation assay, cells were seeded in 96-well pates at low density at 37° C. in medium supplemented with 10% FBS and after 24 hours were switched to low serum medium (2% FBS). Cells were further incubated in the presence of the test articles at various concentrations at 37° C. for 72 hours. Two assays were employed to determine the relative cell numbers. One is a 3-(4,5-dimethylthiazol-2-yl)-5-(3-carboxymethoxyphenyl)-2-(4-sulfophenyl)-2H-tetrazolium (MTS) assay using a CellTiter 96® Aqueous Non-Radioactive Cell Proliferation kit (Promega), and the other is a BrdU incorporation assay using a DELFIA® Cell Proliferation Kit (Perkin Elmer). IC50 value was calculated using median-effect method (Chou 2006).

H2228 = assay: Cell proliferation assay (MTS / BrdU), H2228; type: cell-based; settings: Homo sapiens, NCI-H2228; 72 hours, 2% FBS
Experimental: as §1, §2

Karpas299 = assay: Cell proliferation assay (MTS / BrdU), Karpas299; type: cell-based; settings: Homo sapiens, KARPAS-299; 72 hours, 2% FBS
Experimental: as §1, §2

ALK [2] = target: T1, ALK; assay: Inhibition of ALK phosphorylation (sandwich ELISA, pY1604), cell line not given; type: cell-based; design: fused on or other part: Q9HC35 (Echinoderm microtubule-associated protein-like 4); settings: 1 hour, serum-free
Experimental: as §1
Target sequence in this assay (Q9UM73 1058-1620 limits assumed): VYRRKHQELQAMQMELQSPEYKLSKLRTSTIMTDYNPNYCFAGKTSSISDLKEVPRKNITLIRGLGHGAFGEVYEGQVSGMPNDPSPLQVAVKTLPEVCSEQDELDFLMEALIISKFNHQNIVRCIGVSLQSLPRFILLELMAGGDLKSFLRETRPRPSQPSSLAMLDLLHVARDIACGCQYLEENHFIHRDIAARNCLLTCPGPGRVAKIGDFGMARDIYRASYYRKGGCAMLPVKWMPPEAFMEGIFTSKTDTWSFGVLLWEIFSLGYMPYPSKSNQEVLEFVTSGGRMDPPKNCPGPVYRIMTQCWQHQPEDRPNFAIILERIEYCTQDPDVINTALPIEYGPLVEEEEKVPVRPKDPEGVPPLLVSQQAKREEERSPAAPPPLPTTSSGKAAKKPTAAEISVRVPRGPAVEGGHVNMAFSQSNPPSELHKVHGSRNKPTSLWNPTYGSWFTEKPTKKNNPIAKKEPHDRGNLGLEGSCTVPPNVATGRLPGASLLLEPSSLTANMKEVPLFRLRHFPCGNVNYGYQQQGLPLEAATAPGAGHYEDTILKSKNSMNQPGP

[3] = Pharmacokinetic assay, intravenous and oral administration; type: in vivo, Sprague-Dawley rats or beagle dogs; settings: plasma
Experimental: The tested articles were given to Sprague-Dawley rats or beagle dogs by intravenous and oral administration. Plasma samples were prepared from blood samples which were collected at various time points. The plasma concentrations of the tested articles were determined by specific LC-MS/MS analytical methods. Pharmacokinetic parameters were calculated with WinNonlin®.

Row | Structure (SMILES) | IC50 (ALK [1]) | IC50 (SU-DHL-1) | also measured
1 | COc1cc(-c2cnc(N)c(OC(C)c3c(Cl)ccc(F)c3Cl)c2)c(F)cc1P(C)(C)=O (stereo not drawn) [Example 10, 3-[1-(2,6-dichloro-3-fluoro-phenyl)ethoxy]-5-(4-dimethylphosphoryl-2-fluoro-5-methoxy-phenyl)pyridin-2-amine] | 1000 to 5000 nM |  | 
2 | CC(Oc1cc(-c2ccc(P(=O)(O)O)cc2)cnc1N)c1cc(F)ccc1Cl (stereo not drawn) [Example 27, [4-(6-amino-5-[1-(2-chloro-5-fluoro-phenyl)ethoxyl]-3-pyridyl]phenyl]phosphonic acid] | < 100 nM | 1000 to 5000 nM | 
3 | CC(Oc1cc(-c2ccc(P(C)(C)=O)c3ccccc23)cnc1N)c1c(Cl)ccc(F)c1Cl (stereo not drawn) [Example 9, 3-[1-(2,6-dichloro-3-fluoro-phenyl)ethoxy]-5-(4-dimethylphosphoryl-1-naphthyl)pyridin-2-amine] | 1000 to 5000 nM |  | 
4 | CC(Oc1cc(-c2ccc(P(C)(C)=O)cc2)cnc1N)c1cc(Cl)ccc1Cl (stereo not drawn) [Example 21, 3-[1-(2,5-dichlorophenyl)ethoxy]-5-(4-dimethylphosphorylphenyl)pyridin-2-amine] | 100 to 500 nM | < 100 nM | 
5 | CC(Oc1cc(-c2ccc(CNCP(C)(C)=O)cc2)cnc1N)c1c(Cl)ccc(F)c1Cl (stereo not drawn) [Example 5, 3-[1-(2,6-dichloro-3-fluoro-phenyl)ethoxy]-5-[4-[(dimethylphosphorylmethylamino)methyl]phenyl]pyridin-2-amine] | 100 to 500 nM | 1000 to 5000 nM | IC50 (H2228): 100 to 500 nM
6 | CCOP(=O)(OCC)c1ccc(-c2cnc(N)c(O[C@H](C)c3c(Cl)ccc(F)c3Cl)c2)cc1 [Example 28, 3-[(1R)-1-2-(2,6-dichloro-3-fluoro-phenyl)ethoxy]-5-(4-diethoxyphosphorylphenyl)pyridine-2-amine] | 100 to 500 nM | 1000 to 5000 nM | 
7 | CC(Oc1cc(-c2cnn(C3CCN(CP(C)(C)=O)CC3)c2)cnc1N)c1c(Cl)ccc(F)c1Cl (stereo not drawn) [Example 2, 3-[1-(2,6-dichloro-3-fluoro-phenyl)ethoxy]-5-[1-[1-(dimethylphosphorylmethyl)-4-piperidyl]pyrazol-4-yl]pyridin-2-amine] | < 100 nM |  | IC50 (H2228): 1000 to 5000 nM; IC50 (ALK [2]): < 500 nM
8 | CC(Oc1cc(-c2ccc(P(C)(C)=O)cc2)cnc1N)c1cc(F)ccc1Cl (stereo not drawn) [Example 22, 3-[1-(2-chloro-5-fluoro-phenyl)ethoxy]-5-(4-dimethylphosphorylphenyl)pyridin-2-amine] | 100 to 500 nM | < 100 nM | 
9 | CCOP(=O)(OCC)c1ccc(-c2cnc(N)c(OC(C)c3cc(F)ccc3Cl)c2)cc1 (stereo not drawn) [Example 26, 3-[1-2-(2-chloro-5-fluoro-phenyl)ethoxy]-5-(4-diethoxyphosphorylphenyl)pyridine-2-amine] | 500 to 1000 nM |  | 
10 | CC(Oc1nc(-c2ccc(P(C)(C)=O)cc2)cnc1N)c1c(Cl)ccc(F)c1Cl (stereo not drawn) [Example 11, 3-[1-(2,6-dichloro-3-fluoro-phenyl)ethoxy]-5-(4-dimethylphosphorylphenyl)pyrazin-2-amine] | 100 to 500 nM | 100 to 500 nM | 
11 | CC(Oc1cc(-c2ccc(CN(CP(C)(C)=O)CP(C)(C)=O)cc2)cnc1N)c1c(Cl)ccc(F)c1Cl (stereo not drawn) [Example 4, 5-[4-[(bis(dimethylphosphorylmethyl)amino)methyl]phenyl]-3-[1-(2,6-dichloro-3-fluoro-phenyl)ethoxy]pyridin-2-amine] | 100 to 500 nM |  | IC50 (H2228): 1000 to 5000 nM

Further lines, with some results ahead:

Row | IC50 (ALK [1]) | IC50 (SU-DHL-1) | Structure (SMILES) | also measured
12 | 100 to 500 nM | 1000 to 5000 nM | CC(Oc1cc(-c2cncc(P(C)(C)=O)c2)cnc1N)c1c(Cl)ccc(F)c1Cl (stereo not drawn) [Example 6, 3-[1-(2,6-dichloro-3-fluoro-phenyl)ethoxy]-5-(5-dimethylphosphoryl-3-pyridyl)pyridin-2-amine] | IC50 (H2228): 100 to 500 nM
13 | 1000 to 5000 nM | 1000 to 5000 nM | CC(Oc1cc(-c2ccc(P(C)(C)=O)c(F)c2)cnc1N)c1c(Cl)ccc(F)c1Cl (stereo not drawn) [Example 14, 3-[1-(2,6-dichloro-3-fluoro-phenyl)ethoxy]-5-(4-dimethylphosphoryl-3-fluoro-phenyl)pyridin-2-amine] | 
14 | 500 to 1000 nM | 1000 to 5000 nM | CC(Oc1cc(-c2ccc(P(C)(C)=O)nc2)cnc1N)c1c(Cl)ccc(F)c1Cl (stereo not drawn) [Example 16, 3-[1-(2,6-dichloro-3-fluoro-phenyl)ethoxy]-5-(6-dimethylphosphoryl-3-pyridyl)pyridin-2-amine] | 
15 | 100 to 500 nM |  | CC(Oc1cc(-c2cnn(CP(C)(C)=O)c2)cnc1N)c1c(Cl)ccc(F)c1Cl (stereo not drawn) [Example 3, 3-[1-(2,6-dichloro-3-fluoro-phenyl)ethoxy]-5-[1-(dimethylphosphorylmethyl)pyrazol-4-yl]pyridin-2-amine] | 
16 | 100 to 500 nM | 100 to 500 nM | CC(Oc1cc(-c2ccc(P(C)(C)=O)cc2Cl)cnc1N)c1c(Cl)ccc(F)c1Cl (stereo not drawn) [Example 19, 5-(2-chloro-4-dimethylphosphoryl-phenyl)-3-[1-(2,6-dichloro-3-fluoro-phenyl)ethoxy]pyridin-2-amine] | 
17 | 100 to 500 nM | 100 to 500 nM | CC(Oc1cc(-c2ccc(P(C)(C)=O)cn2)cnc1N)c1c(Cl)ccc(F)c1Cl (stereo not drawn) [Example 18, 3-[1-(2,6-dichloro-3-fluoro-phenyl)ethoxy]-5-(5-dimethylphosphoryl-2-pyridyl)pyridin-2-amine] | IC50 (Karpas299): 100 to 500 nM
18 | 500 to 1000 nM |  | CC(Oc1cc(-c2ccc(P(C)(C)=O)cc2C(F)(F)F)cnc1N)c1c(Cl)ccc(F)c1Cl (stereo not drawn) [Example 15, 3-[1-(2,6-dichloro-3-fluoro-phenyl)ethoxy]-5-[4-dimethylphosphoryl-2-(trifluoromethyl)phenyl]pyridin-2-amine] | 
19 | 100 to 500 nM |  | CC(Oc1cc(-c2ccc(COP(C)(C)=O)cc2)cnc1N)c1c(Cl)ccc(F)c1Cl (stereo not drawn) [Example 7, 3-[1-(2,6-dichloro-3-fluoro-phenyl)ethoxy]-5-[4-(dimethylphosphoryloxymethyl)phenyl]pyridin-2-amine] | 
20 | < 100 nM | 1000 to 5000 nM | C[C@@H](Oc1cc(-c2ccc(P(=O)(O)O)cc2)cnc1N)c1c(Cl)ccc(F)c1Cl [Example 29, [4-(6-amino-5-[(1R)-1-(2,6-dichloro-3-fluoro-phenyl)ethoxyl]-3-pyridyl]phenyl]phosphonic acid] | 
21 | 100 to 500 nM | < 100 nM | CC(Oc1cc(-c2ccc(P(C)(C)=O)cc2O)cnc1N)c1c(Cl)ccc(F)c1Cl (stereo not drawn) [Example 17, 2-[6-amino-5-[1-(2,6-dichloro-3-fluoro-phenyl)ethoxy]-3-pyridyl]-5-dimethylphosphoryl-phenol] | 
22 | 500 to 1000 nM | 100 to 500 nM | CC(Oc1cc(-c2ccc(P(C)(C)=O)cc2OC(F)(F)F)cnc1N)c1c(Cl)ccc(F)c1Cl (stereo not drawn) [Example 20, 3-[1-(2,6-dichloro-3-fluoro-phenyl)ethoxy]-5-[4-dimethylphosphoryl-2-(trifluoromethoxy)phenyl]pyridin-2-amine] | 
23 | < 100 nM |  | COc1cc(-c2cnc(N)c(OC(C)c3c(Cl)ccc(F)c3Cl)c2)ccc1P(C)(C)=O (stereo not drawn) [Example 12, 3-[1-(2,6-dichloro-3-fluoro-phenyl)ethoxy]-5-(4-dimethylphosphoryl-3-methoxy-phenyl)pyridin-2-amine] | 
24 | < 100 nM | 100 to 500 nM | CC(Oc1cc(-c2ccc(P(C)(C)=O)cc2F)cnc1N)c1c(Cl)ccc(F)c1Cl (stereo not drawn) [Example 13, 3-[1-(2,6-dichloro-3-fluoro-phenyl)ethoxy]-5-(4-dimethylphosphoryl-2-fluoro-phenyl)pyridin-2-amine] | IC50 (Karpas299): < 100 nM; half-life ([3]; after oral administration in rats or dogs): > 3 h; bioavailability ([3]; oral administration in rats or dogs, read-out: oral bioavailabilty): > 20%
